Where two headings read alike, the source gives them in different places.
Columns and labels:
[1] = target: His-tagged KRAS G12D protein (Homo sapiens (Human), UniProt P01116, G12D); experiment: KRAS G12D TR-FRET Assay; assay type: binding; conditions: read-out: KRAS G12D Binding IC50
How it was run: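 His-tagged KRAS G12D (diluted to 20 nM in pH 7.4 HEPES buffer with 10 mM MgCl2 and 10 μM GDP) was preincubated with titrated compound for 30 min at room temperature. Biotinylated KRPep-2d peptide (diluted to 20 nM) was then added for 1 h, and displacement was monitored by TR-FRET.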

[2] = test system: Phosphorylation of ERK1/2 in AsPC-1 cells; experiment: Phospho-ERK1/2 MSD Assay; assay type: cell-based, human; conditions: read-out: 2 h p-ERK (AsPC-1 cells), IC50
How it was run: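 Read-out: MSD electrochemiluminescent detection of phosphorylated ERK1/2 in whole-cell lysates, fitted to a 4-parameter logistic curve for IC50. Prior to lysis, AsPC-1 cells (25,000 per well) received a 2 h compound dose-response at 37 °C.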

[3] = target: GDP-bound KRAS protein (aa 1-169), containing both G12D and C118A amino acid substitutions (Homo sapiens (Human), UniProt P01116, C118A/G12D); experiment: KRAS G12D Coupled Nucleotide Exchange Assay; assay type: biochemical; conditions: read-out: KRAS G12D Coupled Exchange IC50
Chain of GDP-bound KRAS protein (aa 1-169), containing both G12D and C118A amino acid substitutions (P01116 other isoform, or with tags, fused parts or gaps G12D/C118A): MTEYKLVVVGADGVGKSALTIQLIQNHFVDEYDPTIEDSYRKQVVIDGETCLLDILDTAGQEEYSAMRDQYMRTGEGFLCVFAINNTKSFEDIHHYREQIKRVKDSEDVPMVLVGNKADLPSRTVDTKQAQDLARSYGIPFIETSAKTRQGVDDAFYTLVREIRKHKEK

[4] = test system: AsPC-1 cells; experiment: AsPC-1 CTG Assay (CellTiter-Glo cell viability); assay type: cell-based, human; conditions: AsPC-1, 72 h, first value of the cell, read-out: G12D/C/V Cell Proliferation CTG (72 h) AsPC-1
How it was run: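 Human pancreatic AsPC-1 or colon SW620 cells in RPMI 1640 with 10% FBS, seeded overnight, then exposed to serially diluted compound for 72 h at 37 °C. CellTiter-Glo luminescence normalized to DMSO control; IC50 from a 4-parameter logistic model.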

[5] = test system: MIA PaCa-2 cells; experiment: MIA PaCa-2 CTG Assay (CellTiter-Glo cell viability); assay type: cell-based, human; conditions: Mia PaCa-2, 72 h, second value of the cell, read-out: G12D/C/V Cell Proliferation CTG (72 h) Mia PaCa-2
Method: MIA PaCa-2 CTG Assay Protocol
MIA PaCa-2 (human pancreatic carcinoma; ATCC CRL-1420) cells were cultured in RPMI 1640 medium containing 10% fetal bovine serum and 1× penicillin/streptomycin/L-glutamine. Cells were seeded in 384-well plates at a density of 1.67E+04 cells/mL and incubated at 37° C., 5% CO2, overnight. Serially-diluted compound or DMSO was added to the cells, and plates were incubated at 37° C., 5% CO2 for 72 h. Cell viability was measured using a CellTiter-Glo® Luminescent Cell Viability Assay kit (Promega) according to the manufacturer's protocol. The luminescence signal of treated samples was normalized to DMSO control, and data were analyzed using a 4-parameter logistic model to calculate IC50 values.

Chain of His-tagged KRAS G12D protein (P01116 other isoform, or with tags, fused parts or gaps G12D): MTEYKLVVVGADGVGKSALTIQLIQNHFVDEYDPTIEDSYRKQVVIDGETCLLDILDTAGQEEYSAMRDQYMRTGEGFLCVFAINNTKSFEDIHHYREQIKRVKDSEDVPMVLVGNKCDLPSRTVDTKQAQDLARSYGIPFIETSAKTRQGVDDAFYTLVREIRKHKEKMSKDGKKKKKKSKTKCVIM

SMILES	IC50 [1] [nM]	IC50 ([2]; Homo sapiens, ASPC1, 2 h) [nM]	IC50 [3] [nM]	IC50 ([4]; Homo sapiens, ASPC1, 72 h) [nM]	IC50 ([5]; Homo sapiens) [nM]	IC50 ([2]; 2 h) [nM]	IC50 [4] [nM]	IC50 [5] [nM]
Fc1c2ncc3c(nc(OC[C@@]45CCCN4C[C@H](F)C5)nc13)N1CCCO[C@@H](COCCCCc3c(Cl)cc4[nH]ncc4c3-2)C1 [Example 140]	5	83	4	650	100			
Cc1cc2[nH]ncc2c2c1CCCn1ccc(n1)[C@H]1CCCN(C1)c1nc(OC[C@@]34CCCN3C[C@H](F)C4)nc3c(F)c-2ncc13 [Example 154, (18S)-31-fluoro-25-(((2R,7aS)-2-fluorotetrahydro-1H-pyrrolo[1,2-a]pyrrol-7a(5H)-yl)methoxy)-9-methyl-5,6,14,22,24,26,30,33-octaazaheptacyclo[25.3.1.1~14,17~.1~18,22~.0~2,10~.0~3,7~.0~23,28~]tritriaconta-1(31),2,4,7,9,15,17(33),23,25,27,29-undecaene]	2	252	4	3360	230			
O=C1OCCCc2c(Cl)cc3[nH]ncc3c2-c2ncc3c(nc(OC[C@H]4CC[C@@H]5COCCN54)nc3c2F)N2CCOC[C@H](C2)O1 [Example 185, (26S)-18-chloro-32-fluoro-4-((6R,8aR)-hexahydro-1H-pyrrolo[2,1-c][1,4]oxazin-6-ylmethoxy)-23,25,28-trioxa-1,3,5,9,14,15-hexaazahexacyclo[24.4.1.1~6,10~.0~2,7~.0~11,19~.0~12,16~]dotriaconta-2,4,6,8,10(32),11,13,16,18-nonaen-24-one]	6	12	5	38	33			
O=C1OCCCc2c(Cl)cc3[nH]ncc3c2-c2c(F)cc3c(nc(OC[C@@]45CCCN4C[C@H](F)C5)nc3c2F)N2CCOC[C@H](C2)O1 [Example 187, p-(26S)-18-chloro-9,32-difluoro-4-(((2R,7aS)-2-fluorotetrahydro-1H-pyrrolo[1,2-a]pyrrol-7a(5H)-yl)methoxy)-23,25,28-trioxa-1,3,5,14,15-pentaazahexacyclo[24.4.1.1~6,10~.0~2,7~.0~11,19~.0~12,16~]dotriaconta-2,4,6,8,10(32),11,13,16,18-nonaen-24-one]	4	4.6	2	76	15			
O=C1OCCCc2c(Cl)cc3[nH]ncc3c2-c2ccc3c(nc(OC[C@@]45CCCN4C[C@H](F)C5)nc3c2F)N2CCOC[C@H](C2)O1 [Example 189, (26S)-18-chloro-32-fluoro-4-(((2R,7aS)-2-fluorotetrahydro-1H-pyrrolo[1,2-a]pyrrol-7a(5H)-yl)methoxy)-23,25,28-trioxa-1,3,5,14,15-pentaazahexacyclo[24.4.1.1~6,10~.0~2,7~.0~11,19~.0~12,16~]dotriaconta-2,4,6,8,10(32),11,13,16,18-nonaen-24-one]	3	4.9	2	115	24			
CN1CCC[C@H]1COc1nc2c3cnc(c(F)c3n1)-c1c(c(Cl)cc3[nH]ncc13)CCCOC(=O)O[C@@H]1CCCCN2C1 [Example 202, (26R)-18-chloro-32-fluoro-4-(((2S)-1-methyl-2-pyrrolidinyl)methoxy)-23,25-dioxa-1,3,5,9,14,15-hexaazahexacyclo[24.4.1.1~6,10~.0~2,7~.0~11,19~.0~12,16~]dotriaconta-2,4,6,8,10(32),11,13,16,18-nonaen-24-one]	6	41.1	3	494	113			
O=C1OCCCc2c(F)cc3[nH]ncc3c2-c2ncc3c(nc(OC[C@@]45CCCN4C[C@H](F)C5)nc3c2F)N2CCOC[C@H](C2)O1 [Example 208, (26S)-18,32-difluoro-4-(((2R,7aS)-2-fluorotetrahydro-1H-pyrrolo[1,2-a]pyrrol-7a(5H)-yl)methoxy)-23,25,28-trioxa-1,3,5,9,14,15-hexaazahexacyclo[24.4.1.1~6,10~.0~2,7~.0~11,19~.0~12,16~]dotriaconta-2,4,6,8,10(32),11,13,16,18-nonaen-24-one]	3	20.7	2	262	38			
O=C1OCCc2c(Cl)cc3[nH]ncc3c2-c2ncc3c(nc(OC[C@@]45CCCN4C[C@H](F)C5)nc3c2F)N2CCO[C@@H](CO1)C2 [Example 217]	4	23	2	455	49			
O=C1OCCc2c(Cl)cc3[nH]ncc3c2-c2ncc3c(nc(OC[C@@]45CCCN4C[C@H](F)C5)nc3c2F)N2CCOCC(CO1)C2 (some centres unmarked) [Example 220]	6	58.9	3	816	64			
O=C1OCCc2c(Cl)cc3[nH]ncc3c2-c2ncc3c(nc(OC[C@@]45CCCN4C[C@H](F)C5)nc3c2F)N2CCCCC(CO1)C2 (some centres unmarked) [Example 222]	3	9.4	2	287	52			
Fc1c2ncc3c(nc(OC[C@@]45CCCN4C[C@H](F)C5)nc13)N1CCC[C@@H](Cc3ncc(o3)CCc3c(Cl)cc4[nH]ncc4c3-2)C1 [Example 231]	6	11.6	4	29	42			
Fc1c2ncc3c(nc(OC[C@@]45CCCN4C[C@H](F)C5)nc13)N1CCC[C@H](C1)c1cnn(n1)CCCc1c(Cl)cc3[nH]ncc3c1-2 [Example 259]	4	25.3	3	215	126			
CN1CCC[C@H]1COc1nc2c3cnc(c(F)c3n1)-c1c(c(Cl)cc3[nH]ncc13)CCCOCC(=O)N1CC[C@@H]3CCN2C[C@@H]31 [Example 267, (29S,33R)-18-chloro-34-fluoro-4-(((2S)-1-methyl-2-pyrrolidinyl)methoxy)-23-oxa-1,3,5,9,14,15,26-heptaazaheptacyclo[24.5.2.1~6,10~.0~2,7~.0~11,19~.0~12,16~.0~29,33~]tetratriaconta-2,4,6(34),7,9,11,13,16,18-nonaen-25-one]	4	33.5	2	80	121			
O=C1COCCc2c(Cl)cc3[nH]ncc3c2-c2ncc3c(nc(OC[C@@]45CCCN4C[C@H](F)C5)nc3c2F)N2CC[C@H]3CCN1[C@H]3C2 [Example 270, (28S,32R)-18-chloro-33-fluoro-4-(((2R,7aS)-2-fluorotetrahydro-1H-pyrrolo[1,2-a]pyrrol-7a(5H)-yl)methoxy)-22-oxa-1,3,5,9,14,15,25-heptaazaheptacyclo[23.5.2.1~6, 10~.0~2,7~.0~11,19~.0~12,16~.0~28,32~]tritriaconta-2,4,6,8,10(33),11,13,16,18-nonaen-24-one]	7		2			123	606	675
Cc1cc2[nH]ncc2c2c1CCCOCC(=O)N1CC[C@@H]3CCN(C[C@@H]31)c1nc(OC[C@@]34CCCN3C[C@H](F)C4)nc3c(F)c-2ncc13 [Example 277, (29S,33R)-34-fluoro-4-(((2R,7aS)-2-fluorotetrahydro-1H-pyrrolo[1,2-a]pyrrol-7a(5H)-yl)methoxy)-18-methyl-23-oxa-1,3,5,9,14,15,26-heptaazaheptacyclo[24.5.2.1~6,10~.0~2,7~.0~11,19~.0~12,16~.0~29,33~]tetratriaconta-2,4,6,8,10(34),11,13,16,18-nonaen-25-one]	3	11	2	88	60			
C[C@@]12CCCCN(C1)c1nc(OC[C@@]34CCCN3C[C@H](F)C4)nc3c(F)c(ncc13)-c1c(c(Cl)cc3[nH]ncc13)CCCOC(=O)N2 [Example 290, (26R)-18-chloro-32-fluoro-4-(((2R,7aS)-2-fluorotetrahydro-1H-pyrrolo[1,2-a]pyrrol-7a(5H)-yl)methoxy)-26-methyl-23-oxa-1,3,5,9,14,15,25-heptaazahexacyclo[24.4.1.1~6,10~.0~2,7~.0~11,19~.0~12,16~]dotriaconta-2,4,6(32),7,9,11,13,16,18-nonaen-24-one]	4	3.1	2	36	32			
